Results on 8 compounds are retold here after ChEMBL document CHEMBL1154681, “Structural aspects of flavonoids as inhibitors of human butyrylcholinesterase” (Eur J Med Chem, 2010).

The source made the active and inactive calls. The calls are words filed in the database; no cut-off is given here.

Series [1] has as its target T1, Cholinesterase (Homo sapiens, UniProt P06276). As to the kind of experiment: Inhibition of human plasma BChE by Ellman's method.
The next series addresses Acetylcholinesterase (Homo sapiens, UniProt P22303). As to the kind of experiment: Inhibition of human recombinant AChE by Ellman's method. In general terms: DTNB colorimetry detects thiols as they appear.
A short description of series [2]: Stability in phosphate buffer at pH 7.4 after 90 mins by spectrophotometry. It counts as physicochemical. As to conditions: pH 7.4, 1.5 h.
The next series has as its system THP-1. As to the kind of experiment: Cytotoxicity against human THP1 cells after 24 hrs by MTS assay. It counts as cell-based. Background: Formazan colour is commonly taken as a measure of viable cells.
In a further series the test system is HepG2. Description: Cytotoxicity against human HepG2 cells upto 200 umol/L after 24 hrs by MTS assay. Type of series: cell-based. Particulars: hepg2, 24 h.
A further series deals with A549. Description: Cytotoxicity against human A549 cells upto 200 umol/L after 24 hrs by MTS assay. It counts as cell-based. Particulars: a549, 24 h.
Series [3] deals with T1, Cholinesterase. As to the kind of experiment: Inhibition of human plasma BChE upto 45 mins at 100 umol/L by Ellman's method. It counts as cell-free.

Chain of Acetylcholinesterase (P22303 whole entry): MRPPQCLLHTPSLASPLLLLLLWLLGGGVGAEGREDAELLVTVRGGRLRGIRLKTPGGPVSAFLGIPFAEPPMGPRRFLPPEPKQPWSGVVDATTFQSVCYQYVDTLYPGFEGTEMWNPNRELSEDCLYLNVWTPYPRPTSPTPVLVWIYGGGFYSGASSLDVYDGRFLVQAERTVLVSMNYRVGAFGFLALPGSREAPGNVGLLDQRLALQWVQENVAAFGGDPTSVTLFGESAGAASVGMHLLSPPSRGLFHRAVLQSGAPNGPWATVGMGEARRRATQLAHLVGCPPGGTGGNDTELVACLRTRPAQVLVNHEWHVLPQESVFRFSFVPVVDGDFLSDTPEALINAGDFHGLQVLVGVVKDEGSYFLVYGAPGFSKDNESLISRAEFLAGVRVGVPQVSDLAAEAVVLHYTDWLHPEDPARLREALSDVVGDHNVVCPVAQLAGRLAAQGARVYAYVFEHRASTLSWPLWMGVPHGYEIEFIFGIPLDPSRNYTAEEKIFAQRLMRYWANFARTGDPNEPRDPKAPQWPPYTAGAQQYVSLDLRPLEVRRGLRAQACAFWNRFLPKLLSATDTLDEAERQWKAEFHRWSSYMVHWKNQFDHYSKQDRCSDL
T1 sequence (P06276 whole entry): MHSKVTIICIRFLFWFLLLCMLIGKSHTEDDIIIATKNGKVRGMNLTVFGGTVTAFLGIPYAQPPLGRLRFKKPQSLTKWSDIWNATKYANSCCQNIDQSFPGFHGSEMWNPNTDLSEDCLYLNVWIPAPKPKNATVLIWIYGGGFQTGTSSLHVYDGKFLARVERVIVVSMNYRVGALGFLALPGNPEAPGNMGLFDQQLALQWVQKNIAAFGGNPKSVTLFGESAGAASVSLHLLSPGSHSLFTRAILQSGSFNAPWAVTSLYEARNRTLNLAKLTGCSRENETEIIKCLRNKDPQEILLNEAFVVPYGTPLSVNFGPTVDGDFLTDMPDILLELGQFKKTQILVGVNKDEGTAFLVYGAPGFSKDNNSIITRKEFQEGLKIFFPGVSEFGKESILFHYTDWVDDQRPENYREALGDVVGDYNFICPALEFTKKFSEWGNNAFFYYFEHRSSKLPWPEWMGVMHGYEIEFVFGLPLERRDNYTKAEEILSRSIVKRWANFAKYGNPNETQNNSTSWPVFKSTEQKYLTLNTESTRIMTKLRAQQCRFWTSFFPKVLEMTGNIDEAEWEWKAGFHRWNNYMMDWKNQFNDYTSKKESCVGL

As to `O=c1cc(-c2ccc(O)cc2)oc2cc(O)cc(O)c12` [APIGENIN], the Ki on Cholinesterase [1] was found to be 37.4 microM/L; at Acetylcholinesterase it was 121.6 microM/L. The Stability entry in series [2] was “Unstable”. The compound further registered an IC50 in the series with THP-1 of 60 microM/L. The Activity entry in the series with HepG2 and with A549 was “Non-toxic” in each case.

In the case of `O=c1c(O)c(-c2ccc(O)c(O)c2)oc2cc(O)ccc12` [FISETIN], the Ki on Cholinesterase [1] was 90 microM/L; at Acetylcholinesterase, 100.2 microM/L. Further, the Stability entry in series [2] was “Unstable”. The compound also came in with an IC50 in the series with THP-1 of 30 microM/L. Also, the Activity result in the series with HepG2 and in the series with A549 was “Non-toxic” throughout.

Turning to `O=c1c(O)c(-c2ccccc2)oc2cc(O)cc(O)c12` [GALANGIN], the Ki at Cholinesterase [1] is on record as 6.9 microM/L; at Acetylcholinesterase, 85.6 microM/L. Besides, in series [2], the Stability entry is “Unstable”. Moreover, the Activity entry with HepG2 and in the series on A549 was “Non-toxic” throughout.

In the case of `O=c1c(O)c(-c2ccc(O)cc2)oc2cc(O)cc(O)c12` [KAEMPFEROL], the Ki at Cholinesterase [1] stood at 43.1 microM/L; at Acetylcholinesterase it was 92.8 microM/L. Also, in series [2], the Stability result is on record as “Unstable”. For the same compound, on Cholinesterase [3], the inhibition result is “inactive”. The Activity result with HepG2 and with A549 was “Non-toxic” throughout.

In the case of `O=c1cc(-c2ccc(O)c(O)c2)oc2cc(O)cc(O)c12` [LUTEOLIN], the Ki on Cholinesterase [1] is 166.1 microM/L; on Acetylcholinesterase it was 65.8 microM/L. Moreover, the Stability entry in series [2] is listed as “Unstable”. In the series on THP-1, this compound gave an IC50 of 70 microM/L. Further, the Activity entry with HepG2 and in the series on A549 was “Non-toxic” each time.

`O=c1c(O)c(-c2cc(O)c(O)c(O)c2)oc2cc(O)cc(O)c12` [MYRICETIN]: the Ki is 71 microM/L at Cholinesterase [1] and 37.8 microM/L at Acetylcholinesterase. In addition, at Cholinesterase [3], the inhibition result was “inactive”. The Activity result with HepG2 and in the series on A549 was “Non-toxic” in each case.

On to `O=c1c(O)c(-c2ccc(O)c(O)c2)oc2cc(O)cc(O)c12` [QUERCETIN], for which the Ki on Cholinesterase [1] worked out at 68 microM/L; at Acetylcholinesterase, 38.3 microM/L. The Stability entry in series [2] is listed as “Unstable”. Moreover, the Activity entry in the series on HepG2 and in the series with A549 was “Non-toxic” in each case.

For the compound `C[C@@H]1O[C@@H](OC[C@H]2O[C@@H](Oc3c(-c4ccc(O)c(O)c4)oc4cc(O)cc(O)c4c3=O)[C@H](O)[C@@H](O)[C@@H]2O)[C@H](O)[C@H](O)[C@H]1O` [RUTIN], the Ki at Cholinesterase [1] was 501.2 microM/L; at Acetylcholinesterase it was over 300 microM/L. Moreover, the Stability result in series [2] is “Stable”. The Activity result in the series with HepG2 and with A549 was “Non-toxic” in each case.
